Laboratory results as given in patent publication US8889680B2, “Treatment or prevention of fungal infections with PDK1 inhibitors” (priority 2010, dated 2014).
Values after ≈ are worked out from the molar mass of the structure shown. Like-named read-outs stand apart in the source and are kept apart here.

Assays:
C. albicans [1] = test: Antifungal susceptibility (microdilution MIC), C. albicans; assay type: cell-based, Candida albicans
Method: (§1) The antifungal activity of protein kinase inhibitors was determined using the Clinical and Laboratory Science Institute microdilution protocol M-27A2. Biofilm antifungal activity was determined using the protocol of Pierce et al. and is reported as MIC50S (Pierce et al., Nat. Protoc. 3:1494-1500 (2008)). Disk diffusion assays were performed as described previously (Roelants et al., Microbiology 150:3289-304 (2004)).
To identify PKIs that disrupt yeast cell wall integrity, a four-part screening strategy as outlined in FIG. 1A was designed. The primary screen in the approach detects molecules that cause yeast cells to lyse, a characteristic phenotype of yeast cell wall damage, by use of an assay that detects the release of adenylate kinase (AK) to the growth medium as a reporter of yeast cell lysis. Previously it was shown that the AK assay in HTS format can detect as few as 500 lysed yeast cells in a sample of 10^5 cells (Didone et al., Nat. Protocol. 5:1107-14 (2010)). PKIs that cause yeast cells lysis (hits) were then re-confirmed by AK dose-response assays and tested for in vitro antifungal activity against the human fungal pathogen C. albicans using standard microdilution susceptibility testing. Last, to select PKIs specific for the CWI signaling pathway, the set of hits were tested for their ability to block the activation of a transcriptional reporter of the CWI-signaling pathway. […]

C. neoformans = test: Antifungal susceptibility (microdilution MIC), C. neoformans; assay type: cell-based, Cryptococcus neoformans
Method: as §1
(FIG. 3A). […] Since the echinocandin class of cell wall-targeted 1,3-β-glucan synthase inhibitors is not active against C. neoformans, this represents one of the few cell wall-targeted molecules with activity against this important pathogen.

[2] = test system: C. albicans clinical reference strain SC5314; test: Adenylate kinase (AK) release assay of yeast cell lysis; assay type: cell-based, Candida albicans; parameters: dose or concentration left out as unconfirmed; settings: extracellular AK activity relative to DMSO-treated cells
Method: AK assays were performed according to a recently published protocol (Didone et al., Nat. Protocol. 5:1107-14 (2010)) using the 96-well plate version using the Toxi-Light Assay kit (Lonza; Basel, Switzerland). Luminescence was measured using a SpectraMax plate reader (Molecular Devices; Sunnyvale, Calif.). […] To identify PKIs that disrupt yeast cell wall integrity, a four-part screening strategy as outlined in FIG. 1A was designed. The primary screen in the approach detects molecules that cause yeast cells to lyse, a characteristic phenotype of yeast cell wall damage, by use of an assay that detects the release of adenylate kinase (AK) to the growth medium as a reporter of yeast cell lysis. […] Last, to select PKIs specific for the CWI signaling pathway, the set of hits were tested for their ability to block the activation of a transcriptional reporter of the CWI-signaling pathway. To rapidly survey a sample of well-characterized PKIs, the commercially available InhibitorSelect collection, a library of 80 PKIs with diverse mechanistic and structural characteristics, was utilized. C. albicans clinical reference strain SC5314 was screened against the InhibitorSelect library for molecules that caused a release of AK into the growth medium.

human cells = settings: cited from earlier work
[3] = test system: C. albicans strain SC5314; test: Mouse model of candidiasis, kidney fungal burden; assay type: in vivo; settings: BALB/c mice, 100 mg/kg per day by oral gavage in peanut oil, 2 days, C. albicans SC5314 i.v.
Method: (§2) YPD cultures were incubated at 37° C. for 30 hours in the presence of the indicated drugs and combinations. Aliquots were diluted and plated on YPD at 30° C. to determine inoculum. […] BALB/c mice (n=5 per group) were treated with 100 mg/kg OSU-03012 per day by oral gavage after inoculation with C. albicans SC5314 by tail vein injection for 2 days and kidney fungal burden was determined.
On the day of inoculation (DO), BALB/c mice were restrained in a mechanical restrainer and inoculated with C. albicans strain SC5314 suspended in saline (1×10^5 cfu/animal) via lateral tail vein injection. OSU-03012 (100 mg/kg) in peanut oil was given by gavage to half the animals (n=5) and peanut oil alone was given to the other half of animals on the day of inoculation and on the following day. ON D2, the animals were sacrificed and the kidneys harvested. The kidneys were homogenized and dilutions were plated on yeast peptone dextrose plates containing gentamicin and vancomycin. The plates were incubated at 30° C. for one day and colony forming units per kidney were determined by standard methods. Differences between treatment and no treatment groups were analyzed by Student's t test with a statistically significant effect defined as P<0.05.

C. albicans biofilms = test: Biofilm XTT reduction assay of metabolic activity; assay type: cell-based, Candida albicans; settings: at higher concentrations than those active against planktonic cells
Method: Filled circles indicate growth and clear circles indicate no detectable turbidity. The lowest concentration of drug resulting in no growth is defined as the MIC. […] Metabolic activity was determined using the XTT assay.
SC5314 biofilms were generated in microtiter plates for 48 hours and treated with OSU-03012 for 24 hours before being subject to an XTT reduction assay of metabolic activity.
as §1

C. neoformans H99 = test: Time-kill evaluation in combination with fluconazole; assay type: cell-based, Cryptococcus neoformans; settings: C. neoformans H99, YPD, 37° C., 30 hours
Method: as §2
To determine if the combination of OSU-03012 and fluconazole was fungicidal, overnight cultures of C. neoformas strain H99 were diluted to 1.5×10^4 cells/ml in yeast peptone dextrose containing either: dimethyl sulfoxide (DMSO) (1% final concentration); fluconazole (2 μg/ml/1% DMSO); OSU-03012 (2 μg/ml/1% DMSO); or OSU-03012 and fluconazole (2 μg/ml each/1% DMSO). The cultures were incubated at 37° C. for 30 hours. Aliquots were removed at 0, 3, 6, 24, and 30 hours; diluted and plated on yeast peptone dextrose plates. The plates were incubated at 30° C. for 48 hours and colony forming units per ml determined by standard methods. It was determined that the combination of OSU-03012 and fluconazole was fungicidal (FIG. 9A).

C. albicans [4] = test: Checkerboard interaction assay (FIC); assay type: cell-based, Candida albicans
Method: This assay allows one to compare the activity of a molecule alone and in combination with another molecule by generating a fractional inhibitory concentration (FIC). FIC for two drugs (A & B) is calculated as follows: […]. FIC values less than 0.5 are considered synergistic; between 0.5 and 1 are additive; between 1-2 are indifferent; and above 2 are antagonistic. […] Therefore, KP-372-1 is not synergistic with either agent.

[5] = test system: CWI pathway reporter Rlm1-lacZ; test: β-Galactosidase CWI pathway reporter assay (Rlm1-lacZ); assay type: cell-based; settings: sub-inhibitory concentrations (1/2 MIC), S. cerevisiae
Method: Bars indicate mean fold change in Miller units of β-galactosidase activity relative to logarithmic phase cells without calcofluor or PKI. Error bars indicate standard deviation of three independent trials performed in triplicate. […] The percentage of cells with PI uptake was determined by fluorescence.
Logarithmic phase S. cerevisiae (BY4741) cells harboring the pRLM1-lacZ plasmid were transferred to a 96-well plate, and treated with Calcofluor white ([…])+/−protein kinase inhibitor at sub-inhibitory concentrations (1/2MIC). The cells were incubated at room temperature for 5 hours and processed for β-galactosidase activity using the ThermoScientific Yeast β-galactosidase kit according to the manufacturer's instructions (Pierce; Rockford, Ill.). β-galactosidase activity was determined by measuring OD420 using a SpectraMax Plate reader (Molecular Devices) and expressed as fold change in Miller units (nmole/mg/min) relative to untreated cells. Each experiment was performed in duplicate with three independent isolates.
The novel, antifungal PKIs identified in the primary screen were evaluated for their ability to block CWI pathway signaling using a reporter construct that contains two copies of the consensus binding site for the CWI-pathway-regulated transcription factor Rlm1 fused to the β-galactosidase gene (Jung et al., Mol. Microbiol. 46:781-9 (2002)). […]

[6] = Candida albicans, C. albicans growth assay, Table 1, read-out: MIC
[7] = C. albicans growth assay, Table 1

Q: With O=C(Nc1cccc(Nc2ncc(Br)c(NCCc3cnc[nH]3)n2)c1)N1CCCC1 [BX-912] as the compound, how does the “MIC (growth inhibition)” value (C. albicans [1]; C. albicans, planktonic) read?
A: Its value is no less than 64 µg/mL.

Q: And the “MIC (growth inhibition)” value (C. neoformans)?
A: The value was no less than 64 µg/mL.

Q: Which “Fold increase in AK release” value [2] does the source give for CO[C@H]1C[C@@H]2CC[C@@H](C)[C@@](O)(O2)C(=O)C(=O)N2CCCC[C@H]2C(=O)O[C@H]([C@H](C)C[C@@H]2CC[C@@H](O)[C@H](OC)C2)CC(=O)[C@H](C)/C=C(\C)[C@@H](O)[C@@H](OC)C(=O)[C@H](C)C[C@H](C)/C=C/C=C/C=C/1C [Rapamycin] here?
A: The value was 17 Fold.

Q: What about the MIC (C. albicans [1]; [6]) of the same compound?
A: The MIC was 100 µg/mL (≈ 109 µM).

Q: Which “Fold increase in AK release” value [2] does the source give for CN[C@@H]1C[C@H]2O[C@@](C)([C@@H]1OC)n1c3ccccc3c3c4c(c5c6ccccc6n2c5c31)C(=O)NC4 [Staurosporine] here?
A: Its value is 48 Fold.

Q: And the MIC (C. albicans [1]; [6])?
A: Its MIC is 0.5 µg/mL (≈ 1.07 µM).

Q: For NCC(=O)Nc1ccc(-n2nc(C(F)(F)F)cc2-c2ccc3c(ccc4ccccc43)c2)cc1 [OSU-03012], which “concentration tolerated in human cells” value (human cells) is on record?
A: The value was 8000 ng/mL.

Q: And the “antifungal activity (in words)” value (C. albicans [1]; C. albicans)?
A: Its value is “good antifungal activity”.

Q: And the MIC (C. albicans [1]; Candida albicans, C. albicans, FIG. 7 legend, read-out: MIC)?
A: Its MIC is 3 µg/mL (≈ 6.52 µM).

Q: What about the “in vivo activity (kidney fungal burden)” value [3] of the same compound?
A: Its value is “in vivo activity against C. albicans infection”.

Q: And the “activity against C. albicans biofilms (in words)” value (C. albicans biofilms)?
A: Its value is “showed activity”.

Q: And the “antifungal activity (in words)” value (C. neoformans)?
A: Its value is “good antifungal activity”.

Q: And the MIC (C. neoformans; Cryptococcus neoformans, FIG. 7 legend)?
A: The MIC was 4 µg/mL (≈ 8.69 µM).

Q: And the interaction with fluconazole (C. neoformans H99)?
A: The interaction with fluconazole was “synergistic”.

Q: What about the “time-kill result of the combination” value (C. neoformans H99; OSU-03012 and fluconazole 2 μg/ml each) of the same compound?
A: Its value is “fungicidal”.

Q: With CN[C@@H]1C[C@H]2O[C@@](C)([C@@H]1OC)n1c3ccccc3c3c4c(c5c6ccccc6n2c5c31)C(=O)N[C@@H]4O [UCN-01] as the compound, how does the “antifungal activity (in words)” value (C. albicans [1]; C. albicans) read?
A: The value was “good antifungal activity”.

Q: What about the “FIC (fractional inhibitory concentration)” value (C. albicans [4]; combination with caspofungin) of the same compound?
A: Its value is 1.0.

Q: What about the “FIC (fractional inhibitory concentration)” value (C. albicans [4]; combination with fluconazole) of the same compound?
A: The value was 0.3.

Q: And the “activity against C. albicans biofilms (in words)” value (C. albicans biofilms)?
A: The value was “showed activity”.

Q: What about the “antifungal activity (in words)” value (C. neoformans) of the same compound?
A: Its value is “good antifungal activity”.

Q: With CC[n+]1c(/C=C/N(C)c2ccccc2)n(-c2ccccc2)c2ccc(-c3nc4ccccc4s3)cc21.[I-] [Akt IV] as the compound, how does the “Fold increase in AK release” value [2] read?
A: Its value is 12 Fold.

Q: And the MIC (C. albicans [1]; [7])?
A: The MIC was 9 µg/mL.

Q: Which “Fold increase in AK release” value [2] does the source give for COc1ccc2c(c[n+](C)c3c4cc5c(cc4ccc23)OCO5)c1OC [Chelerythine] here?
A: Its value is 5 Fold.

Q: What about the MIC (C. albicans [1]; [7]) of the same compound?
A: Its MIC is 125 µg/mL.

Q: Which “Fold increase in AK release” value [2] does the source give for NCCNc1ncc(C(N)=O)c(Nc2cccc(C(F)(F)F)c2)n1 [Sykll] here?
A: Its value is 14 Fold.

Q: What about the MIC (C. albicans [1]; [7]) of the same compound?
A: The MIC was 9 µg/mL (≈ 26.4 µM).

Q: What about the “Rlm1-lacZ reporter activity induced by Calcofluor white” value [5] of the same compound?
A: The value was “completely abolished reporter activity”.

Q: Which “Fold increase in AK release” value [2] does the source give for Herbymicin here?
A: Its value is 127 Fold.

Q: What about the MIC (C. albicans [1]; [7]) of the same compound?
A: Its MIC is 40 µg/mL.
